This is an account of results in patent publication US12410171B2, “Tropomyosin receptor kinase (TRK) degradation compounds and methods of use” (Cullgen (Shanghai), Inc., priority 2020, dated 2025).

pIC50: −log10 of the molar value.

Broadly, the pIC50 is −log10 of the IC50, conventionally taken in molar units.

For experiment [1], the target named is T1, TPM3-TRKA fusion protein (Homo sapiens, UniProt P04629).
T1 construct: The resulted chimeric proteins always retain the kinase domain of TRK proteins; TPM3 (fusion partner, N-terminal part of tropomyosin alpha-3, P06753); endogenous in cells; host or cells: KM12 colon cancer cells; the other entry of the earlier key: TPM3 (P06753, Tropomyosin alpha-3 chain)
The experiment is described as follows: TPM3-TRKA fusion protein levels in KM12 cells (Western blot). The class given is cell-based. The settings on record: for percent degradation of TPM3-TRKA protein at 0.01 µM: 16 h, TPM3-TRKA degradation in KM12 cells at 10 nM compound, category of percentage degradation, read-out: Degradation (at 10 nM). An outline of the steps:
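KM12 colon cancer cells were treated with DMSO or compounds at 0.1–100 nM, 0.4–30 nM or other stated concentrations for 4, 8–16 or 16 h. RIPA lysates were BCA-normalized and resolved by SDS-PAGE. TPM3-TRKA was detected by chemiluminescent Western blot, with bands quantified by densitometry.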
(Immunoblotting shows a protein as a band on a membrane.)

In experiment [2] the test system is KM12 cells. The experiment is described as follows: KM12 cell viability (CellTiter-Glo). The class given is cell-based. The settings on record: for pIC50: Homo sapiens, 72 h, KM12 cell viability, CellTiter-Glo, three days treatment, read-out: IC50. Summed up: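 KM12 cells seeded at 5000 per well in RPMI 1640 + 10% FBS and exposed 3 days to serial dilutions (11-point 3-fold, 8-point 3-fold from 1000 nM, or 12-point 2-fold). Viability by CellTiter-Glo; IC50 from least-squares nonlinear regression.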

Setting [3] is: 500 nM, 12-point 2-fold serial dilution, 3 days (FIG. 4A).

T1 sequence (P04629 with tags, fused parts or gaps): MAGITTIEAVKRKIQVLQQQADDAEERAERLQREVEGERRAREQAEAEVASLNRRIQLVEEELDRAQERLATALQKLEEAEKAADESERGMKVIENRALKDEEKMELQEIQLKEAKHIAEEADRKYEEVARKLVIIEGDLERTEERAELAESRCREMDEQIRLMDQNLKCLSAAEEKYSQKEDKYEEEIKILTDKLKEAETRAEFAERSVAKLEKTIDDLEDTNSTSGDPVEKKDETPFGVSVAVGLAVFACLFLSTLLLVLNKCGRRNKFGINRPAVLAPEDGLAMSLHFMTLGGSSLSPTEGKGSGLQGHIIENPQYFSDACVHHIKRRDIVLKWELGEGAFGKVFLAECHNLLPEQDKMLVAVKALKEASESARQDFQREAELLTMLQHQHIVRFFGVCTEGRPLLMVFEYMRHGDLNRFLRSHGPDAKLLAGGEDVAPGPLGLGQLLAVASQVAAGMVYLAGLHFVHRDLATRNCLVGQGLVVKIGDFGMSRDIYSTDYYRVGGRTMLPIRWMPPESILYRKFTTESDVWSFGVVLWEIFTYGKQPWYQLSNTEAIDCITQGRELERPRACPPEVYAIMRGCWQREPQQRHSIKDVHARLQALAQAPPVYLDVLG

For `O=C1CCC(N2C[C@H](c3ccc(C#CCN4CCN(c5cccc(-c6cnc7ccc(N8CCCC8c8cccc(F)c8)nn67)n5)CC4)cc3)OC2=O)C(=O)N1` (stereo in doubt) [TR-224, 3-((S)-5-(4-(3-(4-(6-(6-((S)-2-(3-fluorophenyl)pyrrolidin-1-yl)imidazo[1,2-b]pyridazin-3-yl)pyridin-2-yl)piperazin-1-yl)prop-1-yn-1-yl)phenyl)-2-oxooxazolidin-3-yl)piperidine-2,6-dione], the percent degradation of TPM3-TRKA protein at 0.01 µM in experiment [1] was above 80%. In addition, the pIC50 in experiment [2] was 8.06.

As for `O=C1CCC(N2C(=O)c3cccc(NCCOCCOCCOCCC(=O)N4CCN(c5cccc(-c6cnc7ccc(N8CCC[C@@H]8c8cccc(F)c8)nn67)n5)CC4)c3C2=O)C(=O)N1` (stereo partly drawn) [CPD-010, 2-(2,6-Dioxopiperidin-3-yl)-4-((2-(2-(2-(3-(4-(6-(6-((R)-2˜ (3-fluorophenyl)pyrrolidin-1-yl)imidazo[1,2-b]pyridazin-3-yl)pyridin-2-yl)piperazin-1-yl)-3-oxopropoxy)ethoxy)ethoxy)ethyl)amino) isoindoline-1,3-dione], the percent degradation of TPM3-TRKA protein at 0.01 µM in experiment [1] lay within 50 to 80%. Moreover, the “viability of KM12 cells” value in experiment [2] (setting [3]) is “inhibited the viability of KM12 cells”.

With `O=C1CCC(N2C(=O)c3cccc(NCCCC(=O)N4CCN(c5ccc(C(=O)Nc6n[nH]c7ccc(Cc8cc(F)cc(F)c8)cc67)c(NC6CCOCC6)c5)CC4)c3C2=O)C(=O)N1` (stereo not drawn) [CPD-053, N-(5-(3,5-Difluorobenzyl)-1H-indazol-3-yl)-4-(4-(4-((2-(2,6-dioxopiperidin-3-yl)-1,3-dioxoisoindolin-4-yl)amino)butanoyl)piperazin-1-yl)-2-((tetrahydro-2H-pyran-4-yl)amino)benzamide], the percent degradation of TPM3-TRKA protein at 0.01 µM in experiment [1] was above 80%. The TPM3-TRKA protein levels result in experiment [1] (KM12 cells, 100 nM, indicated incubation time, Western blot (FIG. 2)) is recorded as “rapidly reduced TPM3-TRKA protein levels”. Further, the “viability of KM12 cells” value in experiment [2] (setting [3]) was “inhibited the viability of KM12 cells”; in experiment [2] (1000 nM, 8-point 3-fold serial dilution, 3 days (FIG. 4B)), “significantly inhibited the viability of KM12 cells”. The pIC50 in experiment [2] was 8.82.

Consider `O=C1CCC(N2C(=O)c3cccc(NCCOCCOCCOCCC(=O)N4CCN(c5ccc(C(=O)Nc6n[nH]c7ccc(Cc8cc(F)cc(F)c8)cc67)c(NC6CCOCC6)c5)CC4)c3C2=O)C(=O)N1` (stereo not drawn) [CPD-057, N—(S-(3,5-Difluorobenzyl)-1H-indazol-3-yl)-4-(4-(3-(2-(2-(2-((2-(2,6-dioxopiperidin-3-yl)-1,3-dioxoisoindolin-4-yl)amino)ethoxy)ethoxy)ethoxy)propanoyl)piperazin-1-yl)-2-((tetrahydro-2H-pyran-4-yl)amino)benzamide], for which the percent degradation of TPM3-TRKA protein at 0.01 µM in experiment [1] is above 80%. In addition, the “viability of KM12 cells” value in experiment [2] (setting [3]) was “inhibited the viability of KM12 cells”.

Regarding `O=C1CCC(N2C(=O)c3ccc(N4CC(CN5CCC(n6ccc(-c7cnc8ccc(N9CCC[C@@H]9c9cccc(F)c9)nn78)c6)CC5)C4)cc3C2=O)C(=O)N1` (stereo partly drawn) [TR-222, 2-(2,6-Dioxopiperidin-3-yl)-5-(3-((4-(3-(6-((R)-2-(3-fluorophenyl)pyrrolidin-1-yl)imidazo[1,2-b]pyridazin-3-yl)-1H-pyrrol-1-yl)piperidin-1-yl)methyl)azetidin-1-yl)isoindoline-1,3-dione], in experiment [2], the pIC50 was below 6.30.

Regarding `O=C1CCC(N2C(=O)c3ccc(N4CC(CN5CCN(c6cccc(-c7cnc8ccc(N9CCC[C@@H]9c9cccc(F)c9)cn78)n6)CC5)C4)cc3C2=O)C(=O)N1` (stereo partly drawn) [TR-234, 2-(2,6-dioxopiperidin-3-yl)-5-(3-((4-(6-(6-((R)-2-(3-fluorophenyl)pyrrolidin-1-yl)imidazo[1,2-a]pyridin-3-yl)pyridin-2-yl)piperazin-1-yl)methyl)azetidin-1-yl)isoindoline-1,3-dione], in experiment [2], the pIC50 is 6.55.

With `O=C1CCC(n2c(=O)n(CCCN3CCN(c4cccc(-c5cnc6ccc(N7CCC[C@@H]7c7cccc(F)c7)cn56)n4)CC3)c3ccccc32)C(=O)N1` (stereo partly drawn) [TR-243, 3-(3-(3-(4-(6-(6-((R)-2-(3-Fluorophenyl)pyrrolidin-1-yl)imidazo[1,2-a]pyridin-3-yl)pyridin-2-yl)piperazin-1-yl)propyl)-2-oxo-2,3-dihydro-1H-benzo[d]imidazol-1-yl)piperidine-2,6-dione], in experiment [2], the pIC50 is below 6.30.

Turning to `Cn1c(=O)n(C2CCC(=O)NC2=O)c2ccc(OCCCN3CCN(c4cccc(-c5cnc6ccc(N7CCC[C@@H]7c7cccc(F)c7)nn56)n4)CC3)cc21` (stereo partly drawn) [TR-257, 3-(5-(3-(4-(6-(6-((R)-2-(3-Fluorophenyl)pyrrolidin-1-yl)imidazo[1,2-b]pyridazin-3-yl)pyridin-2-yl)piperazin-1-yl)propoxy)-3-methyl-2-oxo-2,3-dihydro-1H-benzo[d]imidazol-1-yl)piperidine-2,6-dione], in experiment [2], the pIC50 is below 6.30.

Turning to `O=C1CCC(N2C(=O)c3ccc(CN4CCN(c5ccc(C(=O)Nc6n[nH]c7ccc(Cc8cc(F)cc(F)c8)cc67)c(NC6CCOCC6)c5)CC4)cc3C2=O)C(=O)N1` (stereo not drawn) [TR-274, N-(5-(3,5-Difluorobenzyl)-1H-indazol-3-yl)-4-(4-((2-(2,6-dioxopiperidin-3-yl)-1,3-dioxoisoindolin-5-yl)methyl)piperazin-1-yl)-2-((tetrahydro-2/-pyran-4-yl)amino)benzamide], the negative logarithm of the IC50 (pIC50) in experiment [2] was 6.36.

Consider `O=C1CCC(N2C(=O)c3ccc(CCN4CCN(c5ccc(C(=O)Nc6n[nH]c7ccc(Cc8cc(F)cc(F)c8)cc67)c(NC6CCOCC6)c5)CC4)cc3C2=O)C(=O)N1` (stereo not drawn) [TR-277, N-(5-(3,5-Difluorobenzyl)-1H-indazol-3-yl)-4-(4-(2-(2-(2,6-dioxopiperidin-3-yl)-1,3-dioxoisoindolin-S-yl)ethyl)piperazin-1-yl)-2-((tetrahydro-2H-pyran-4-yl)amino)benzamide], for which the negative-log IC50 (pIC50) in experiment [2] was below 6.30.

Consider `O=C1CCC(N2C(=O)c3ccc(N4CC5(CCC(N6CCN(c7ccc(C(=O)Nc8n[nH]c9ccc(Cc%10cc(F)cc(F)c%10)cc89)c(NC8CCOCC8)c7)CC6)C5)C4)cc3C2=O)C(=O)N1` (stereo not drawn) [TR-291, N-(5-(3,5˜Difluorobenzyl)-1H-indazol-3-yl)-4-(4-(2-(2-(2,6-dioxopiperidin-3-yl)-1,3-dioxoisoindolin-5-yl)-2-azaspiro[3.4]octan-6-yl)piperazin-1-yl)-2-((tetrahydro-2H-pyran˜4-yl)amino)benzamide], for which, in experiment [2], the pIC50 is 6.35.

For `Cc1nc2cccc(N3CC(CCN4CCN(c5cccc(-c6cnc7ccc(N8CCC[C@@H]8c8cccc(F)c8)nn67)n5)CC4)C3)c2c(=O)n1C1CCC(=O)NC1=O` (stereo partly drawn) [TR-307, 3-(5˜ (3-(2-(4-(6-(6-((R)-2-(3-Fluorophenyl)pyrrolidin-1-yl)imidazo[1,2-b]pyridazin-3-yl)pyridin-2-yl)piperazin-1-yl)ethyl)azetidin-1-yl)-2-methyl-4-oxoquinazolin-3 (4H)-yl)piperidine-2,6-dione], the pIC50 in experiment [2] is 7.90.

In the case of `O=C1CCC(n2c(=O)n(CCN3CCN(c4ccc(C(=O)Nc5n[nH]c6ccc(Cc7cc(F)cc(F)c7)cc56)c(NC5CCOCC5)c4)CC3)c3ccccc32)C(=O)N1` (stereo not drawn) [TR-310, N—(S-(3,5-Difluorobenzyl)-1H-indazol-3-yl)-4-(4-(2-(3-(2,6-dioxopiperidin-3-yl)-2-oxo-2,3-dihydro-1H-benzo[d]imidazol-1-yl)ethyl)piperazin-1-yl)-2-((tetrahydro-2H-pyran-4-yl)amino)benzamide], the pIC50 in experiment [2] is 7.90.

Take `O=C1CCC(n2c(=O)n(CCCN3CCN(c4ccc(C(=O)Nc5n[nH]c6ccc(Cc7cc(F)cc(F)c7)cc56)c(NC5CCOCC5)c4)CC3)c3ccccc32)C(=O)N1` (stereo not drawn) [TR-311, N—(S-(3,5-Difluorobenzyl)-1H-indazol-3-yl)-4-(4-(3-(3-(2,6-dioxopiperidin-3-yl)-2-oxo-2,3-dihydro-1H-benzo[d]imidazol-1-yl)propyl)piperazin-1-yl)-2˜ ((tetrahydro-2H-pyran-4-yl)amino)benzamide]: in experiment [2], the pIC50 was 7.83.

As for `Cn1c(=O)n(C2CCC(=O)NC2=O)c2cccc(OCCCN3CCN(c4ccc(C(=O)Nc5n[nH]c6ccc(Cc7cc(F)cc(F)c7)cc56)c(NC5CCOCC5)c4)CC3)c21` (stereo not drawn) [TR-312, N-(5-(3,5-Difluorobenzyl)-1H-indazol-3-yl)-4-(4-(3-((1-(2,6-dioxopiperidin-3-yl)-3-methyl-2-oxo-2,3-dihydro-1H-benzo[d]imidazol-4-yl)oxy)propyl)piperazin-1-yl)-2-((tetrahydro-2/˜pyran-4-yl)amino)benzamide], the pIC50 in experiment [2] was 6.97.

With `Cn1c(=O)n(C2CCC(=O)NC2=O)c2ccc(OCCCN3CCN(c4ccc(C(=O)Nc5n[nH]c6ccc(Cc7cc(F)cc(F)c7)cc56)c(NC5CCOCC5)c4)CC3)cc21` (stereo not drawn) [TR-313, N-(5-(3,5-Difluorobenzyl)-1H-indazol-3-yl)-4-(4-(3-((1-(2,6-dioxopiperidin-3-yl)-3-methyl-2-oxo-2,3-dihydro-1H-benzo[d]imidazol-5-yl)oxy)propyl)piperazin-1-yl)-2-((tetrahydro-2/1-pyran-4-yl)amino)benzamide], in experiment [2], the pIC50 was 7.86.

On to `O=C1CCC(N2C(=O)c3ccc(N4CC5(CN(CC6CCN(c7ccc(C(=O)Nc8n[nH]c9ccc(Cc%10cc(F)cc(F)c%10)cc89)c(NC8CCOCC8)c7)CC6)C5)C4)cc3C2=O)C(=O)N1` (stereo not drawn) [TR-329], for which the pIC50 in experiment [2] is below 6.30.
